# Assay results as given in patent publication US10273442B1, “Device and method for concomitant ejection and suction of perfusate” (priority 2015, dated 2019).
# Entries after “also recorded” stand apart in the source; their conditions may differ.
# How the values were obtained:
# Type in all cases: cell-based, rat
# RS cell in LIII of PrS = test: Action potential firing of PrS neurons on local application via CESOP, current-clamp in acute brain slices; settings: glutamate 100 μM, 3 min duration
# [1] = test system: LII stellate cells in MEA; test: Spontaneous postsynaptic currents (sEPSCs, sIPSCs) in LII stellate cells of MEA after focal application of compounds to PrS via CESOP, voltage-clamp in acute brain slices; settings: for percentage reduction in sIPSC frequency following application of the drug: NBQX 10 μM focally to PrS; for average sIPSC frequency / average sEPSC amplitude / average sEPSC frequency: glutamate 100 μM then NBQX 10 μM focally to PrS, mean ±SEM; for average sIPSC frequency: holding 0 mV; for average sEPSC amplitude / average sEPSC frequency: holding -70 mV
# Protocol: (§1) Sprague-Dawley rats (male; n=11 epileptic, n=15 controls) from postnatal (P) days 40 to 88 were used in this study. All experiments were carried out in accordance with the National Institute of Health Guide for the Care and Use of Laboratory Animals and were approved by the Florida State University Institutional Animal Care and Use Committee. Rats were made epileptic according to previously described protocols for bringing up the pilocarpine model of TLE. Briefly, rats were treated with pilocarpine (P41, 141±2 g; 380 mg/kg i.p.) 20 min after atropine methylbromide (5 mg/kg i.p.). Diazepam (10 mg/kg i.p.) was administered 2 h after the onset of status epilepticus and repeated as needed. Following recovery from status epilepticus, rats were video monitored (40 h/wk) for spontaneous seizures. Animals used for electrophysiological experiments were confirmed epileptic, displaying frank spontaneous recurrent seizures scored 3 or greater on the Racine scale (Racine 1972) on two or more observations during the 40 h/wk video monitoring. Recordings from epileptic animals were made on average 39 days (P80) post status epilepticus (range: 25-47 days, P66-P88), with initial seizures observed between 5 and 29 days post status. Control groups consisted of naive rats that were on average P70 (range: P49-P91).
# (§2) Rats were deeply anesthetized with urethane (1.5 g/kg ip) before being decapitated. Following decapitation, the brain was quickly removed from the skull before being placed in a chilled (4° C.) low-Ca^2+, low-Na^+“cutting solution” containing (in mM) 230 sucrose, 10 D-glucose, 26 NaHCO3, 2.5 KCl, 1.25 NaH2PO4, 10 MgSO4, and 0.5 CaCl2 equilibrated with a 95%-5% mixture of O2 and CO2. After removing the cerebellum and rostral half of the brain, a 10-15° semi-horizontal cut (in a ventral-caudal to dorsal-rostral plane) was made to the dorsal part of the cortex with respect to the horizontal plane (FIG. 2E). The cut dorsal surface of the brain was adhered to the cutting platform using cyanoacrylate glue. This cutting angle was chosen to increase the likelihood of preserving PrS projections to MEA in acute brain slices, because PrS projections tend to travel to the MEA in a lateroventral orientation. Semi-horizontal slices (400 μm) were prepared using a microslicer (VT1000S, Leica, Germany) in the chilled cutting solution and allowed to equilibrate in oxygenated artificial cerebrospinal fluid (aCSF) containing (in mM) 126 NaCl, 26 NaHCO3, 3 KCl, 1.25 NaH2PO4, 2 MgSO4, 2 CaCl2, 0.25 L-Glutamine, and 10 D-glucose (pH 7.4), first at 32° C. for 1 h and subsequently at room temperature before being transferred to the recording chamber.
# (§3) Recordings were obtained at 32±1° C. from neurons in LII and LIII of MEA under Nomarski optics (Zeiss) using a visualized infrared setup (Hamamatsu) that enabled identification of their location within the various lamina. On average, 3.5±0.4 (range: 2-5) and 3.6±0.4 (range: 2-6) cells were recorded per animals in the control and epileptic groups respectively. Patch electrodes were pulled from borosilicate glass (1.5 mm outer diameter, 0.75 mm inner diameter, 3-6 MΩ). The internal solution for voltage-clamp experiments contained (in mM): 120 cesium gluconate, 1 MgCl2, 1 CaCl2, 11 CsCl, 10 HEPES, 2 NaATP, 0.3 NaGTP, 1 QX-314, 11 EGTA, and 20 biocytin (pH 7.3, corrected with Cs-OH; final osmotic concentration, 290 mOsm). The internal solution for current-clamp experiments contained (in mM): 105 potassium gluconate, 30 KCl, 10 HEPES, 10 phosphocreatine, 4 MgATP, 0.3 GTP (pH adjusted to 7.3 with KOH; final osmotic concentration, 300 mOsm).
# (§4) Recording conditions were the same for control and epileptic animals. Slices were maintained in oxygenated (95% O2-5% CO2) aCSF, flowing at a rate of 2 ml/min. Drugs were applied focally to superficial PrS via the CESOP technique (FIGS. 4A-4E, described below). […]
# [2] = test system: LIII pyramidal neurons in MEA; test: Spontaneous postsynaptic currents (sEPSCs, sIPSCs) in LIII pyramidal neurons of MEA after focal application of compounds to PrS via CESOP, voltage-clamp in acute brain slices
# Protocol: as §1, §2, §3, §4
# [3] = epileptic rats (pilocarpine model of TLE)
# [4] = epileptic conditions, glutamate 100 μM then NBQX 10 μM focally to PrS, holding 0 mV, mean ±SEM
Structure (SMILES),action potential discharge of PrS neurons in response to local application (RS cell in LIII of PrS),percentage reduction in sIPSC frequency following application of the drug ([1]; control animals),average sIPSC frequency ([1]; control rats),average sEPSC amplitude ([1]; control rats),average sEPSC frequency ([1]; control rats),"average sIPSC frequency [1, 3]","average sEPSC amplitude [1, 3]","average sEPSC frequency [1, 3]",percentage reduction in sIPSC frequency following application of the drug ([1]; epileptic rats),"sIPSC frequency ([2]; control animals, glutamate 100 μM then NBQX 10 μM focally to PrS, holding 0 mV, mean ±SEM)","reduction in sEPSC frequency following application of NBQX ([2]; control conditions, NBQX 10 μM focally to PrS)","average sEPSC frequency ([2]; control rats, glutamate 100 μM then NBQX 10 μM focally to PrS, holding -70 mV, mean ±SEM)","average sIPSC amplitude [2, 4]","average sIPSC frequency [2, 4]","sEPSC frequency ([2]; epileptic rats (pilocarpine model of TLE), glutamate 100 μM then NBQX 10 μM focally to PrS, holding -70 mV, mean ±SEM)"
"N[C@@H](CCC(=O)[O-])C(=O)[O-].[Na+].[Na+] [glutamate, Sodium glutamate]",sustained action potential discharge; also recorded: reliably evokes action potential firing,–,–,–,–,–,–,–,–,–,–,–,–,–,–
"NS(=O)(=O)c1cccc2c1c([N+](=O)[O-])cc1[nH]c(=O)c(=O)[nH]c12 [NBQX, 2,3-dioxo-6-nitro-1,2,3,4-tetrahydrobenzo[f]quinoxaline-7-sulfonamide]",–,22%,11.1±1.4 Hz,18±1 pA,5.6±1 Hz,7.5±1 Hz,21±2 pA,4.9±0.8 Hz,11%,4.5±0.3 Hz,30%,4.6±0.6 Hz,30±2 pA,6.8±0.9 Hz,10.5±2 Hz
